Reference: patent US20260217719A1, “CDK2 INHIBITORS” (BLUEPRINT MEDICINES CORPORATION, priority 2023, published 2026)

Experiments:
CDK1/Cyclin B1, GST-tag = molecular target: T1, CDK1/Cyclin B1, GST-tag (Homo sapiens, UniProt P06493); assay: Enzymatic phosphorylation activity assay (Caliper mobility shift), CDK1/Cyclin B1; assay type: biochemical; settings: read-out: Enzyme CDK1/cyclin B1 IC50
T1 construct: GST; purchased BPS 40454
Method: (§1) Inhibitory effects of the compounds of the disclosure were measured in biochemical assays that measure the enzymatic phosphorylation activity of CDK enzyme in complex of Cyclin proteins phosphorylates 7.5 micromolar fluorescently labelled peptide substrate, 5-FAM-QSPKKG-CONH2, (FL-Peptide 18, Perkin Elmer, 760362) in the presence of adenosine-5′-triphosphate (ATP) and varying concentrations of the test compound in 100 mM 2-[4-(2-hydroxyethyl)piperazin-1-yl] ethanesulfonic acid (HEPES), pH 7.5, 10 mM MgCl2, 0.015% Brij-35, 1 mM dithiothreitol (DTT), 1.0% dimehylsulfoxide (DMSO). […] Reactions proceeded until between 10% to 20% total peptides were phosphorylated at room temperature (25° C.) and were terminated with 35 mM 2,2′,2″,2″-(ethane-1,2-diyldinitrilo)tetraacetic acid (EDTA). Product was detected using the Caliper mobility shift detection method where the phosphorylated peptide (product) and substrate were electrophoretically separated and measured. Percent activity was plotted against log concentration of compound and points to generate an apparent IC50. The following CDK enzymes in complex with different cyclin proteins were used in these assays: • CDK1/Cyclin B1, GST-tag (BPS, 40454), 1.5 nM used in the assay • CDK2/Cyclin E (Eurofins, 14-475), 1.25 nM used in the assays

CDK2/Cyclin E = molecular target: T2, CDK2/Cyclin E (Homo sapiens, UniProt P24941); assay: Enzymatic phosphorylation activity assay (Caliper mobility shift), CDK2/Cyclin E; assay type: biochemical; settings: read-out: Enzyme CDK2/cyclin E IC50
T2 construct: purchased Eurofins 14-475
Method: as §1

T1 sequence (P06493 whole entry): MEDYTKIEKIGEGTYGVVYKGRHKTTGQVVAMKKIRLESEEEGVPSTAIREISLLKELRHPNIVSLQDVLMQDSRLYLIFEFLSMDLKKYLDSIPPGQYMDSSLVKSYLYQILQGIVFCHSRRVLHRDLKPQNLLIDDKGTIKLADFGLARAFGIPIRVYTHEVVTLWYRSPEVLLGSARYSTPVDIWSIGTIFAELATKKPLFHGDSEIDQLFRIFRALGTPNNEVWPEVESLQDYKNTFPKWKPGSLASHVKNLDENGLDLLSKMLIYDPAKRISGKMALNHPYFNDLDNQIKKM
T1 sequence (P14635 whole entry partner): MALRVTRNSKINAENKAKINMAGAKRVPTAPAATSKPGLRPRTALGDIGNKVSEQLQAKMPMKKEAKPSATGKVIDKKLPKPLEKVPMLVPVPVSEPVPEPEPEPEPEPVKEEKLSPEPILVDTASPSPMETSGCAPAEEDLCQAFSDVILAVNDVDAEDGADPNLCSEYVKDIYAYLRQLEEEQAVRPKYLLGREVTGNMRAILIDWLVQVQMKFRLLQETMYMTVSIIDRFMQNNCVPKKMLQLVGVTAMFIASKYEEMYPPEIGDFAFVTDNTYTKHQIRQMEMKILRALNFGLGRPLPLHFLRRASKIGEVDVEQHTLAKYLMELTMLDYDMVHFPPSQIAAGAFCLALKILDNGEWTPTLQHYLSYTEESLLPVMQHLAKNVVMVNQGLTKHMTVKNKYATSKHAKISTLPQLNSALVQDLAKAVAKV

IC50 (CDK1/Cyclin B1, GST-tag) [µM] | IC50 (CDK2/Cyclin E) [µM] | SMILES
0.163 | 0.00071 | FC(F)Oc1cc(Nc2cnc3ccn(CC4CCOCC4)c3n2)n[nH]1 [Example 2, N-(5-(difluoromethoxy)-1H-pyrazol-3-yl)-5-((tetrahydro-2H-pyran-4-yl)methyl)-5H-pyrrolo[2,3-b]pyrazin-3-amine]
0.054 | 0.00031 | CC(C)c1cc(Nc2cnc3ccn([C@H](C)c4cccnc4)c3n2)n[nH]1 [Example 4, (R)—N-(5-isopropyl-1H-pyrazol-3-yl)-5-(1-(pyridin-3-yl)ethyl)-5H-pyrrolo[2,3-b]pyrazin-3-amine]
